Test results published in patent US20230020036A1, “TREATMENT OF EPILEPTIC CONDITIONS WITH GABAA RECEPTOR MODULATORS” (NEUROCYCLE THERAPEUTICS, INC., priority 2019, published 2023).
“And” between values parts separate entries of the source, which are not always exact repeats. Equal values may be shown once. “Also recorded” adds a separate entry of the source.

Test system: Scn1a+/- heterozygous knockout mice ([129xB]F1.Scn1a+/-), heat-induced seizures
Test: Hyperthermia-induced seizure study in Scn1a+/- heterozygous knockout mice
Format: in vivo, mouse
Parameters: Temp Change: unit not given here
Conditions: for amount of seizures relative to administration of vehicle: Table 10 summary; for performance compared with the clobazam positive control: clobazam 10 mg/kg; for efficacy at preventing heat-induced seizures: summary of the seizure study, FIG. 13
From the text: Reason for selection of species: The Scn1a^+/− knockout mouse ([129xB]F1. Scn1a^+/−) is a model subject of DS with a high translational value.
Between P14 and 16, Scn1a^+/− heterozygous knockout mice are randomly assigned to treatment groups (n=7 males, 7 females/treatment group). The Scn1a^+/− knockout mouse model was chosen because it is an art accepted animal model for epileptic conditions, including for Dravet Syndrome. Treatments are GABAA receptor modulator 1 (“Compound 1” as a phosphate salt at 0.1, 0.3, 1.0 mg/kg), GABAA receptor modulator 2 (“Compound 2” at 3, 10, 30, 100 mg/kg), vehicle, or Clobazam (“CBZ”) (10 mg/kg; positive control).
The GABAA receptor modulators were administered intraperitoneally (i.p.) using a 0.5 or 1-ml plastic syringe fitted with a 27 or 30 gauge 0.5″-long beveled needle.
Animals received 10 mL of formulation per kg of body weight as measured on the day of experiment.
In order to verify the dose concentration, mice were dosed with a test article or control and placed into individual housing cages. A temperature probe was gently inserted into the mouse's rectum and secured by taping the probe's wire to the mouse's tail with the tag end on the mouse's dorsal side. For each group, the insertion of the probe was as follows: • a. For mice administered CBZ, five (5) mins passed before insertion of the probe in order to allow 20-30 min pretreatment time when the state of hyperthermia reached. • b. For mice administered Compound 1, thirty-five (35) mins passed before insertion of the probe in order to allow 50-60 min pretreatment time when the state of hyperthermia is reached. • c. For mice administered […], five (5) mins passed before insertion of the probe in order to allow 20-30 min pretreatment time when the state of hyperthermia reached.
Each mouse was allowed to acclimate to the temperature probe for five (5) minutes before recording the baseline temperature. FIGS. 1-3 depict the starting temperatures of the female mice, the male mice, and the average starting temperatures of all mice prior to inducing the heat-induced seizures.
FIGS. 4-6 depict the final core body temperature of the female mice, the male mice, and the average final core body temperature of all mice after heating. FIGS. 7-9 illustrate the total temperature change for the female mice, the male mice, and average of all mice; while FIGS. 10-12 depict the average temperature change per minute for the female mice, the male mice, and average of all mice. The mouse's body temperature was maintained at 42.5° C. for 3 mins. If no seizure occurred, the mouse was considered seizure-free.

[1] = 0.1 mg/kg i.p., 60 minute pretreatment, individual animals, female mice
[2] = 0.1 mg/kg i.p., 60 minute pretreatment, individual animals, male mice
[3] = 0.3 mg/kg i.p., 60 minute pretreatment, individual animals, female mice
[4] = 0.3 mg/kg i.p., 60 minute pretreatment, individual animals, male mice
[5] = 3 mg/kg i.p., 30 minute pretreatment, individual animals, female mice
[6] = 3 mg/kg i.p., 30 minute pretreatment, individual animals, male mice
[7] = Compound 2 30 mg/kg, 30 minute pretreatment, individual animals, female mice
[8] = Compound 2 30 mg/kg, 30 minute pretreatment, individual animals, male mice
[9] = Compound 2 100 mg/kg, 30 minute pretreatment, individual animals, female mice
[10] = Compound 2 100 mg/kg, 30 minute pretreatment, individual animals, male mice
[11] = Clobazam 10 mg/kg i.p., 30 minute pretreatment, individual animals, female mice
[12] = Clobazam 10 mg/kg i.p., 30 minute pretreatment, individual animals, male mice

CC(C)(O)c1cnn2c(-c3ccc(F)c(-c4c(F)cccc4C#N)c3)cnc2n1 [Compound 1]
Total With No Seizure (0.1 mg/kg i.p., 60 minute pretreatment): 6% | End Temp [1]: 41.9 °C and 41.8 °C and 41.6 °C and 42 °C and 41.7 °C and 42.8 °C and 41.4 °C and 41.2 °C | Observations [1]: Tonic-clonic, squeek; also recorded: Seizure free, 3 min hold | End Temp [2]: 42.6 °C and 41.8 °C and 40.8 °C and 42 °C and 42.1 °C and 41.5 °C and 42.2 °C and 41.6 °C | Observations [2]: Tonic-clonic, seizure; also recorded: Tonic-clonic, squeek | Total With No Seizure (0.3 mg/kg i.p., 60 minute pretreatment): 33% | End Temp [3]: 41.7 °C and 41.4 °C and 42.3 °C (2×) and 42.5 °C and 42.8 °C and 42.1 °C and 42.2 °C and 42.7 °C | Observations [3]: Tobic-clonic, squeek, HLE; also recorded: Seizure free, 3 min hold; also recorded: tonic-clonic, squeek, HLE | End Temp [4]: 41.4 °C and 42.4 °C (2×) and 42.8 °C and 41.9 °C and 42.2 °C and 42.6 °C (2×) and 43 °C | Observations [4]: Tonic,-clonic, squeek; also recorded: Tonic-clonic, squeek; also recorded: Seizure free, 3 min hold | Total With No Seizure (1.0 mg/kg i.p., 60 minute pretreatment): 36% | Observations (1.0 mg/kg i.p., 60 minute pretreatment, individual animals): Tonic-clonic seizure,; also recorded: seizure free, 3 min hold; also recorded: Tonic-clonic seizure; also recorded: Tonic-clonic, Squeek | End Temp (1.0 mg/kg i.p., 60 minute pretreatment, individual animals, female mice): 42.2 °C (2×) and 42.8 °C (2×) and 42.4 °C and 42.5 °C (3×) and 42.3 °C and 42.9 °C and 42.1 °C | End Temp (1.0 mg/kg i.p., 60 minute pretreatment, individual animals, male mice): 41.9 °C and 42.5 °C (2×) and 42.9 °C and 42.3 °C and 42.2 °C and 42.8 °C (2×) and 41.5 °C and 41.3 °C and 42.6 °C | amount of seizures relative to administration of vehicle: reduced the amount of seizures | performance compared with the clobazam positive control: performed at least as well as the clobazam positive control | efficacy at preventing heat-induced seizures: effective at preventing heat-induced seizures | End Temperature (summary, 0.1 mg/kg (n = 16)): 41.81 °C | Seizure free % (summary, 0.1 mg/kg (n = 16)): 6% | Temp Change (summary, 0.1 mg/kg (n = 16)): 6.66 | Temp Change/min (summary, 0.1 mg/kg (n = 16)): 0.52 | End Temperature (summary, 0.3 mg/kg (n = 18)): 42.29 °C | Seizure free % (summary, 0.3 mg/kg (n = 18)): 33% | Temp Change (summary, 0.3 mg/kg (n = 18)): 7.15 | Temp Change/min (summary, 0.3 mg/kg (n = 18)): 0.48 | End Temperature (summary, 1.0 mg/kg (n = 22)): 42.39 °C | Seizure free % (summary, 1.0 mg/kg (n = 22)): 36% | Temp Change (summary, 1.0 mg/kg (n = 22)): 7.05 | Temp Change/min (summary, 1.0 mg/kg (n = 22)): 0.46

C#Cc1ccc2c(c1)C(c1ccccn1)=NCc1c(-c3nc(CC)no3)ncn1-2 [Compound 2]
Total With No Seizure (3 mg/kg i.p., 30 minute pretreatment): 7% | End Temp [5]: 42.6 °C and 41.8 °C and 41.7 °C (2×) and 42.2 °C and 42.4 °C and 41.4 °C | Observations [5]: Seizure free, 3 min hold; also recorded: Tonic-clonic, squeek | End Temp [6]: 41.3 °C (2×) and 41.7 °C and 42.1 °C and 41.8 °C and 42 °C and 42.5 °C | Observations [6]: Tonic-clonic, squeek; also recorded: Tonic-clonic on the onset | prevention of seizures (100 mg/kg dose, n=8): completely preventing seizures in each animal | dose dependence of seizure prevention (3, 10, 30, 100 mg/kg): prevented seizures in a dose-dependent fashion | Total With No Seizure (Compound 2 10 mg/kg i.p., 30 minute pretreatment): 50% | Observations (Compound 2 10 mg/kg i.p., 30 minute pretreatment, individual animals): Tonic-clonic, squeek | End Temp (Compound 2 10 mg/kg i.p., 30 minute pretreatment, individual animals, female mice): 42.7 °C (2×) and 42.8 °C (2×) and 42.6 °C and 42.1 °C and 42.5 °C | End Temp (Compound 2 10 mg/kg i.p., 30 minute pretreatment, individual animals, male mice): 42.5 °C (3×) and 42.8 °C and 42 °C and 40 °C and 42.7 °C | Total With No Seizure (Compound 2 30 mg/kg, 30 minute pretreatment): 73% | End Temp [7]: 42.5 °C and 41.5 °C and 42.8 °C (2×) and 42.7 °C (3×) and 42.6 °C | Observations [7]: seizure free, 3 min hold; also recorded: Tonic-clonic seizure | Temp Change [7]: 9.1 and 5.3 and 6.3 and 6.2 and 7.9 and 7.2 and 6.6 and 7.4 | Temp Change/min [7]: 0.51 and 0.48 (2×) and 0.41 and 0.46 and 0.55 and 0.39 and 0.35 | End Temp [8]: 42.5 °C and 42.8 °C and 42.6 °C and 43 °C and 42.7 °C (2×) and 41.6 °C | Observations [8]: Tonic-clonic, squeek; also recorded: Seizure free, 3 min hold | Temp Change [8]: 7.3 and 6.8 and 7.8 and 7.5 (2×) and 9.6 and 7 | Temp Change/min [8]: 0.66 and 0.49 and 0.41 and 0.54 and 0.53 and 0.50 and 0.63 | Total With No Seizure (Compound 2 100 mg/kg, 30 minute pretreatment): 100% | End Temp [9]: 42.9 °C and 42.7 °C (2×) and 42.5 °C | Observations [9]: Seizure free, 3 min hold | Temp Change [9]: 8.2 and 7.4 and 7.7 and 8.5 | Temp Change/min [9]: 0.59 and 0.53 and 0.33 and 0.50 | End Temp [10]: 42.6 °C (2×) and 42.7 °C and 42.5 °C | Observations [10]: Seizure free, 3 min hold | Temp Change [10]: 7.4 and 7.2 and 9.7 and 7.7 | Temp Change/min [10]: 0.31 and 0.36 and 0.54 and 0.29 | amount of seizures relative to administration of vehicle: reduced the amount of seizures | performance compared with the clobazam positive control: performed at least as well as the clobazam positive control | efficacy at preventing heat-induced seizures: effective at preventing heat-induced seizures | End Temperature (summary, 3 mg/kg (n = 14)): 41.89 °C | Seizure free % (summary, 3 mg/kg (n = 14)): 7% | Temp Change (summary, 3 mg/kg (n = 14)): 6.61 | Temp Change/min (summary, 3 mg/kg (n = 14)): 0.45 | End Temperature (summary, 10 mg/kg (n = 14)): 42.37 °C | Seizure free % (summary, 10 mg/kg (n = 14)): 50% | Temp Change (summary, 10 mg/kg (n = 14)): 7.09 | Temp Change/min (summary, 10 mg/kg (n = 14)): 0.47 | End Temperature (summary, 30 mg/kg (n = 15)): 42.55 °C | Seizure free % (summary, 30 mg/kg (n = 15)): 73% | Temp Change (summary, 30 mg/kg (n = 15)): 7.30 | Temp Change/min (summary, 30 mg/kg (n = 15)): 0.49 | End Temperature (summary, 100 mg/kg (n = 8)): 42.60 °C | Seizure free % (summary, 100 mg/kg (n = 8)): 100% | Temp Change (summary, 100 mg/kg (n = 8)): 8.00 | Temp Change/min (summary, 100 mg/kg (n = 8)): 0.37

CN1C(=O)CC(=O)N(c2ccccc2)c2cc(Cl)ccc21 [Clobazam, reference compound]
Total With No Seizure (Clobazam 10 mg/kg i.p., 30 minute pretreatment): 38% | End Temp [11]: 42.3 °C and 42 °C and 42.2 °C and 42.7 °C (2×) and 42.6 °C (4×) and 42.5 °C (2×) and 42.9 °C | Observations [11]: Tonic-clonic, squeek; also recorded: seizure free, 3 min hold; also recorded: Tonic-clonic on the onset; also recorded: Tonic-clonic, HLE | End Temp [12]: 41.9 °C and 42.6 °C (2×) and 42.5 °C (3×) and 42.9 °C and 42.8 °C and 41.8 °C and 42 °C and 41.7 °C and 42.1 °C | Observations [12]: seizure free, 3 min hold; also recorded: Tonic-clonic seizure; also recorded: Tonic-clonic seizure,; also recorded: Tonic-clonic, squeek; also recorded: Tonic-clonic on the onset | End Temperature (summary, 10 mg/kg (n = 24)): 42.42 °C | Seizure free % (summary, 10 mg/kg (n = 24)): 38% | Temp Change (summary, 10 mg/kg (n = 24)): 7.60 | Temp Change/min (summary, 10 mg/kg (n = 24)): 0.53
